Test results taken from ChEMBL document CHEMBL1134816, “Synthesis of 7,8-disubstituted benzolactam-V8 and its binding to protein kinase C” (Bioorg Med Chem Lett, 2001).

Key:
[1] = molecular target: Protein kinase C alpha type (Homo sapiens, UniProt P17252); test: Displacement phorbol 12,13-dibutyrate(PDBU) binding from recombinant Protein kinase C alpha
[2] = molecular target: Protein kinase C delta type (Homo sapiens, UniProt Q05655); test: Binding affinity for protein kinase C delta
[3] = molecular target: T1, Protein kinase C epsilon type (Homo sapiens, UniProt Q02156); test: Binding affinity for protein kinase C epsilon
T1 sequence (Q02156 whole entry): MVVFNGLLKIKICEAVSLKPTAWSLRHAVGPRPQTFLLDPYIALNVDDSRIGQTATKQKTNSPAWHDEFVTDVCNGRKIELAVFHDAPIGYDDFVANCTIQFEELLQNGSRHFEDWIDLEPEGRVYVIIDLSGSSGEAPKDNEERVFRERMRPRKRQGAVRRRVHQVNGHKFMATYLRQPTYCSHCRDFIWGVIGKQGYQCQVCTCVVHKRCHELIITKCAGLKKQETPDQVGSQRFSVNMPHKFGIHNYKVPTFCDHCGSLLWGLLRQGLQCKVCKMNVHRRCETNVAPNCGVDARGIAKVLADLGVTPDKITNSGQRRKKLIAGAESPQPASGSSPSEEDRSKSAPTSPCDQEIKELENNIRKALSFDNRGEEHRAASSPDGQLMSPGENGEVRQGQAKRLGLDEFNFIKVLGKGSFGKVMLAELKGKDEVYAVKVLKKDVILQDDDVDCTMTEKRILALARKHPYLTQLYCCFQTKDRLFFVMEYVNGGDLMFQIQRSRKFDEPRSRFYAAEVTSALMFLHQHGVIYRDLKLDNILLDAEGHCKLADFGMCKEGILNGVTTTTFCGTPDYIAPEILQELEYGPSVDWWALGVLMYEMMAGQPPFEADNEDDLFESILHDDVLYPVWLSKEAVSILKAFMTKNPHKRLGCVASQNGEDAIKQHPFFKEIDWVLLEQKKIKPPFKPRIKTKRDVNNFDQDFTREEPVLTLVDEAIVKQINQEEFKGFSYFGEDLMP

Sequence of Protein kinase C delta type (Q05655 whole entry): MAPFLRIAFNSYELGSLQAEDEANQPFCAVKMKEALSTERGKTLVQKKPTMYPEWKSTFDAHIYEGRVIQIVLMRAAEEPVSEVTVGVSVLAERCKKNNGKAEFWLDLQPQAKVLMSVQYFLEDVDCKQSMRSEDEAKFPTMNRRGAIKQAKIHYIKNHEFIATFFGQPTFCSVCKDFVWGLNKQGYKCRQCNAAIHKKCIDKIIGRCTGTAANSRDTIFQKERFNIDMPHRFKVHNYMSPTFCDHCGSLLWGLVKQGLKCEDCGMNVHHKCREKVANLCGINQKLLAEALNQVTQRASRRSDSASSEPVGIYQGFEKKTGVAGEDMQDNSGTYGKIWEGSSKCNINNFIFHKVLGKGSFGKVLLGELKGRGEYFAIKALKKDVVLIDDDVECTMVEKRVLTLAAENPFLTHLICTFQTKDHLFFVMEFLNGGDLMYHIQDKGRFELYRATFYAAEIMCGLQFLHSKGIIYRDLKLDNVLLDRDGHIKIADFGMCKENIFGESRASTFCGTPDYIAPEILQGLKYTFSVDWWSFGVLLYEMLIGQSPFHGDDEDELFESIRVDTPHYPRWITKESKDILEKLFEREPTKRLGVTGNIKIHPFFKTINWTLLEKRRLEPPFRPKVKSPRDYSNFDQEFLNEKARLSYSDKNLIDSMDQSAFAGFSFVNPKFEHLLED

COc1cccc2c1C[C@@H](CO)NC(=O)[C@H](C(C)C)N2C
Ki [1]: 7.16 µM

CCCCCCCCC#Cc1ccc2c(c1OC)C[C@@H](CO)NC(=O)[C@H](C(C)C)N2C
Ki [2]: 91.1 nM
Ki [3]: 121 nM
Ki [1]: 0.0456 µM
